This is an account of results in patent US7582679B2, “Compositions containing solid ibuprofen concentrates and methods of making solid ibuprofen concentrates” (Pharmaceutics International Incorporated, priority 2006, dated 2009).

Data set [1] is described as follows: Comparative dissolution of hard gelatin capsules, USP apparatus type II, purified water. In kind it is physicochemical. Conditions: size 1 hard gelatin capsule, 200 mg ibuprofen, paddle 50 rpm, 900 mL purified water. As to the method:
Ibuprofen powder (supplied by BASF) was similarly filled manually into size 1 hard gelatin capsules to yield 200 mg ibuprofen per capsule.
Capsules were tested using a USP dissolution apparatus type II with a paddle speed of 50 rpm and 900 mL of purified water as a dissolution medium.

Data set [2] is described as follows: Angle of repose (flowability of powder). The format is physicochemical. As to the method:
The dried granules were lubricated with 0.25% w/w magnesium stearate and compressed using a Piccola 10 station rotary tablet press. The lubricated granules had angle of repose 26.56° compared with ibuprofen powder (supplied by BASF) having an angle of repose 48.01°. The resultant compressed tablets had hardness 6.1 kp and thickness 4.80 mm.

SMILES strings stand for the structures.

Turning to `CC(C)Cc1ccc(C(C)C(=O)O)cc1` (stereo not shown) [ibuprofen powder, ibuprofen], the “% dissolution” value is given as 2.2% in data set [1] (10 min), 5.9% in data set [1] (20 min) and 9.2% in data set [1] (30 min). Moreover, in data set [2], the angle of repose is 48.01 °.
